Measured values: BigSolDB 2.1

Cc1cnc(NC(=O)C2=C(O)c3ccccc3S(=O)(=O)N2C)s1
solubility (mole fraction)
Conditions	293.15 K	298.15 K	303.15 K	308.15 K	313.15 K
in DMF	0.0117	0.0128	0.0139	0.0153	0.0163
in formamide	0.00069	0.000749	0.000802	0.000872	0.000927
in n-methylformamide	0.00149	0.00159	0.00169	0.00182	0.00191
